Laboratory results from EP0481701B1, “Treatment composition” (priority 1990, dated 1992).

Experiments:
[1] = solubility of Triclosan in PBS (remark in the method); type: physicochemical; conditions: PBS without ethanol
Description: (§1) Liposomes were prepared by the reverse phase evaporation procedure referred to above incorporating Triclosan in the lipid mixture. Some of the liposome samples were prepared with concanavalin A (ConA) conjugated to their surface. Details are as follows: (a) Derivatisation of ConA with SATA 2.5µl of a stock solution containing 9.08mg N-succinimidyl-S-acetyl thioacetate (SATA) in 50µl dimethylformamide was added to ConA solution (10mg in 2.5ml phosphate (50mM) - EDTA (1mM) buffer, pH7.5) at room temperature. After reaction (15min) the derivatised protein (s-ConA) was separated from unreacted SATA by gel filtration on a Sephadex G-50 column (15 x 2cm). The s-ConA was activated by deacetylation using, for each 2ml of protein solution, 200µl of 0.1M hydroxylamine solution, made up in 2.5mM EDTA with sufficient solid Na₂HPO₄ added to bring the pH to 7.5. […] The fractions collected were analysed for phospholipid and Triclosan by scintillation counting. Particle sizes of the liposomes were determined by photon correlation spectroscopy, following the method described in Hutchinson et al., Biochim. […] (e) Assessment of efficacy The antibacterial efficacy of Triclosan delivered in targeted liposomes was assessed using a bacterial regrowth assay. […]

Strep. sanguis (CR2b) = experiment: bacterial regrowth assay (antibacterial efficacy of Triclosan delivered in targeted liposomes); type: cell-based
Description: as §1, with “7.5. (b) Preparatlon of DPPE-MBS 40mg L-α-dipalmitoylphosphatidylethanolamine (DPPE) was dissolved in a mixture of 16ml dry chloroform, 2ml dry methanol and 20mg dry triethylamine. 20mg maleimidobenzoyl-N-hydroxysuccinimide ester (MBS) was added and the reaction mixture was stirred under nitrogen at room temperature for 24h, after which the organic phase was washed three times with phosphate buffered saline (PBS, pH7.3) to remove unreacted MBS. The DPPE-MBS derivative was recovered from the organic phase by rotary evaporation and was stored in a chloroform/methanol mixture (9:1 v/v) at 4°C. (c) Preparation of liposomes 27mg dipalmitoylphosphatidylcholine (DPPC), 3mg phosphatidylinositol (PI, from wheat germ) and 3mg DPPE-MBS were dissolved in 9ml chloroform/methanol mixture (4:1 v/v).” for “7.5.”

Oc1cc(Cl)ccc1Oc1ccc(Cl)cc1Cl [Triclosan in solution, 2,4,4'-trichloro-2'-hydroxy diphenyl ether]
solubility in PBS alone [1]: virtually insoluble
% inhibition of growth incubated with saliva (Strep. sanguis (CR2b); 1min exposure, PBS plus human saliva (1:1), 5µg Triclosan in 100µl PBS with 10% ethanol): 3%
% inhibition of growth without saliva (Strep. sanguis (CR2b); 1min exposure, PBS, no saliva, 5µg Triclosan in 100µl PBS with 10% ethanol): 8%
% inhibition of growth (Strep. sanguis (CR2b); relative to PBS alone, 2h exposure at 37°C, regrowth 18h, optical density at 630nm, PBS containing 10% ethanol, total Triclosan 10µg (free, liposomes with ConA) or 20µg (liposomes without ConA) in 100µl): 75%
